From paper PMC3454376, “Salidroside Improves Behavioral and Histological Outcomes and Reduces Apoptosis via PI3K/Akt Signaling after Experimental Traumatic Brain Injury” (PLoS ONE, 2012)

Test system: mice subjected to controlled cortical impact injury
Test: Rotarod motor test after CCI
Assay type: in vivo
Protocol: All animal procedures were approved by the Animal Research Committee at Cheng Hsin General Hospital (Animal permit number CHIACUC 101–08), and all procedures complied with the Guide for the Care and Use of Laboratory Animals published by the US National Institutes of Health (NIH Publication No. 85–23, revised 1996). Animals were housed under a 12-h light/dark cycle and at constant temperature (21–25°C) and humidity (45–50%). They were allowed free access to pellet chow and water. TBI in mice was induced by a CCI injury model as previously described. Briefly, 8-week-old male C57BL/6 mice (weighing 22–25 g) were anesthetized through the use of intraperitoneal injection of sodium pentobarbital (65 mg/kg; Rhone Merieux, Harlow, UK) and placed in a stereotaxic frame. A 5 mm craniotomy was performed over the right parietal cortex, centered on the coronal suture and 0.1 mm lateral to the sagittal suture, and injury to dura was avoided. […] Body temperature was monitored throughout the surgery by a rectal probe; temperature was maintained at 37.0±0.5°C using a heated pad. […]
Three sets of experiments were performed. […] To determine the optimal dose of salidroside, a pilot study was performed using 2 different doses (20 and 50 mg/kg) administered 10 min after injury, and neurological deficits and tissue damage were evaluated as the main outcomes. […]

OC[C@H]1O[C@@H](OCCc2ccc(O)cc2)[C@H](O)[C@@H](O)[C@@H]1O [SALD, salidroside]
rotarod performance versus vehicle group (20 mg/kg ip 10 min after CCI, whole observation period (28 days), all P<0.05): significantly better performance | rotarod outcome versus vehicle group (50 mg/kg ip 10 min after CCI, only at days 14 and 28, P<0.05): significantly improved
